From patent US20090123581A1, “COLLAGEN CROSS-LINKING AGENTS ON DENTAL RESTORATIVE TREATMENT AND PREVENTIVE DENTISTRY” (THE BOARD OF TRUSTEES OF THE UNIVERSITY OF ILLINOIS, priority 2006, published 2009)
“And” between values parts separate entries of the source, which are not always exact repeats. Equal entries are not always repeated.

Columns and labels:
[1] = Ultimate tensile strength (UTS) of demineralized dentin after cross-linker treatment (Example 1); parameters: species or system human; conditions: for Ultimate tensile strength, mean: pH 7.4
From the text: (§1) Fixation Processes: Ten sound freshly extracted human molars were used in this study. The teeth were thawed, cleaned of adhering soft tissues, and the occlusal surfaces were ground flat with #320 grit Silicon Carbide paper under running water to remove part of the enamel. Flattening of the occlusal surface by removal of the cusps enables accurate sectioning of samples in beam shape. Teeth were sectioned into 0.5±0.1 by 0.5±0.1 mm thick beams (n=20 beams per tooth) with a slow speed diamond wafering blade (Buehler-Series 15LC Diamond, Lake Bluff, Ill., USA) under constant water coolant (FIG. 1A).
(§2) The slabs were randomly divided into two groups: 1) undemineralized dentin and 2) demineralized dentin (FIG. 1A). In Group 2, dentin beams were immersed in 10% phosphoric acid solution (Fisher Scientific, New Jersey, N.J.) for a period of 5 hours. X-rays were taken from the specimens to verify complete tissue demineralization. Specimens were thoroughly rinsed with distilled water for 10 minutes to remove any residue of the phosphoric acid.
(§3) Specimens from groups 1 and 2 were subdivided according to the dentin treatment (FIG. 1B). In Treatment A, specimens were immersed in PBS solution (pH: 7.4) as a control. In Treatment B, specimens were immersed in 0.5% Proanthocyanidin (MegaNatural—Polyphenolics Ind.) PBS solution (PA) at a pH of 7.4. In Treatment C, specimens were immersed in 0.625% Genipin (Wako Pure Chemical Ind.) PBS solution (GE) at a pH of 7.4. In Treatment D, specimens were immersed in 5% glutaraldehyde solution (GD) (Fisher Scientific, New Jersey, N.J.) at a pH of 7.4. Specimens were kept in their respective solutions for 4 and 40 hours at room temperature. After the incubation periods, specimens were thoroughly rinsed with distilled and deionized water to remove any remains of cross-linking agents and buffer.
(§4) UTS testing: For UTS evaluation, the specimens were glued with a cyanoacrylate adhesive (Zapit—Dental Ventures of America Inc., Corona, Calif.) to a Ciucchi's jig, which was mounted on a universal testing machine (EZ Test, Shimazu Co., Kyoto, Japan) and subjected to microtensile testing at a crosshead speed of 1 mm/min (FIG. 1C). Means and standard deviations were calculated and expressed in microtensile bond strengths (MPa). Statistical analysis was performed using a two-way ANOVA and Fisher's PLSD tests (p<0.05).

[2] = Ultimate tensile strength (UTS) of undemineralized (mineralized) dentin after cross-linker treatment (Example 1); parameters: species or system human; conditions: 0.625% GE or 5% GD; for Ultimate tensile strength, mean: pH 7.4
From the text: as §1, §2, §3, §4

[3] = Microtensile bond strength of adhesive restoration to caries-affected dentin (Example 2); parameters: species or system human; conditions: caries-affected demineralized dentin; 5% glutaraldehyde for 5 minutes; versus control
Procedure: (§5) Effect of an exogenous collagen cross-linking agent on dentin bonding: In order to analyze the contribution of exogenous collagen cross-linking to sound and caries-affected dentin bonding, demineralized dentin surfaces were treated with 5% glutaraldehyde and the restored specimens were subjected to microtensile bond strength testing.
(§6) Specimen preparation: Six human molars stored frozen (−20° C.) for less then one month were used. The teeth presented occlusal caries in which enamel was visually intact. The teeth were thawed, cleaned of adhering soft tissues, and the occlusal surfaces were ground flat with #320 and #600 grit Silicon Carbide (Sic) papers under running water to remove the enamel and expose flat middle dentin, respectively. […]
(§7) Microtensile bond test (MTB): After 24 hrs in water at 37° C., the teeth were sectioned into 0.7±0.2 mm thick slabs, and the interfaces trimmed to an hourglass shape using a fine diamond bur to produce a cross-sectional area of 1 mm^2. The thickness of the slabs and the width of the trimmed surface were measured using a digital caliper (Fisher Scientific, New Jersey, N.J.) and specimens in sound and caries-affected dentin were obtained. […] MPa were determined by dividing the fracture load by the cross-sectional area of the interface.

[4] = Microtensile bond strength of adhesive restoration to sound dentin (Example 2); parameters: species or system human; conditions: 5% glutaraldehyde for 5 minutes, versus control (p=0.2395)
Procedure: as §5, §6, §7

[5] = UTS of demineralized dentin after collagenase challenge (Example 7); conditions: for UTS, individual specimens / UTS, mean: 1 h 25% GD or 6.5% GSE
Procedure: The data shown below in Tables 7 to 14 and in FIG. 8 describes the effect of grape seed extract and Glutaraldehyde on the tensile strength of demineralized dentin after collagenase challenge. Samples were treated and then subjected to collagenase digestion.

[6] = 24 hrs ammonium bicarbonate buffer, no collagenase
[7] = 24 hrs collagenase 100 ug/ml + ammonium bicarbonate buffer

## O=CCCCC=O [GD, glutaraldehyde]
[1]; 4 hours in 0.5% PA, 0.625% GE or 5% GD
  Ultimate tensile strength, mean: 13.1 MPa
[1]; 40 hours in 0.5% PA, 0.625% GE or 5% GD
  Ultimate tensile strength, mean: 9.1 MPa
[1]; pooled over 4 and 40 hours, 0.5% PA, 0.625% GE or 5% GD
  Ultimate tensile strength, pooled data: 11.1 BC MPa
[1]; two-way ANOVA, Fisher's PLSD
  UTS values compared to the control group (statistics): no statistically significant differences
[2]; 4 hours in 0.5% PA
  Ultimate tensile strength, mean: 94.5 MPa
[2]; 40 hours in 0.5% PA
  Ultimate tensile strength, mean: 110.4 MPa
[2]; pooled over 4 and 40 hours, 0.5% PA
  Ultimate tensile strength, pooled data: 102.5 A MPa
[3]
  increase in the bond strength values: 35%
[4]
  effect on bond strength: no significant effect
[5]; [6]
  UTS, individual specimens: 16.93 Mpa and 5.28 Mpa and 9.86 Mpa and 9.57 Mpa and 7.56 Mpa and 8.24 Mpa and 8.76 Mpa and 5.66 Mpa and 7.99 Mpa and 11.97 Mpa and 8.93 Mpa and 7.60 Mpa and 8.38 Mpa
  UTS, mean: 8.98 Mpa and 8.99 Mpa
[5]; [7]
  UTS, individual specimens: 10.31 Mpa and 16.54 Mpa and 8.71 Mpa and 8.46 Mpa and 5.59 Mpa and 8.18 Mpa and 9.27 Mpa and 12.33 Mpa and 17.30 Mpa and 7.74 Mpa and 9.75 Mpa and 6.29 Mpa and 16.53 Mpa
  UTS, mean: 10.54 Mpa
[5]; strength values versus baseline (no collagenase treatment), control groups fully digested
  effect of collagenase digestion on treated demineralized dentin: not affected by the collagenase treatment
